Results as given in patent publication US8143243B2, “Compounds for the treatment of hepatitis C” (Bristol-Myers Squibb Company, priority 2007, dated 2012).
pEC50, pIC50: −log10 of the molar value. Like-named read-outs stand apart in the source and are kept apart here.

What was measured:
HCV replicon cells = experiment: HCV replicon FRET / luciferase assay; type: cell-based; details: Hepatitis C virus
How it was run: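 Readout was NS3 protease cleavage of an EDANS/DABCYL FRET peptide (20 μM final) in lysed HCV replicon cells, or Renilla luciferase in reporter replicons. Background came from wells with the highest level of control protease inhibitor. EC50 marked the concentration giving 50% signal reduction.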

HCV NS5B = target: T1, HCV NS5B (Hepatitis C virus genotype 1b, UniProt Q9WMX2); experiment: HCV NS5B RdRp enzyme assay (standard / modified); type: biochemical
T1 construct: The protein was expressed with an 18 amino acid C-terminal truncation to enhance the solubility; made in house; host or cells: E. coli BL21 (DE3)
T1 sequence (Q9WMX2 2420-2992): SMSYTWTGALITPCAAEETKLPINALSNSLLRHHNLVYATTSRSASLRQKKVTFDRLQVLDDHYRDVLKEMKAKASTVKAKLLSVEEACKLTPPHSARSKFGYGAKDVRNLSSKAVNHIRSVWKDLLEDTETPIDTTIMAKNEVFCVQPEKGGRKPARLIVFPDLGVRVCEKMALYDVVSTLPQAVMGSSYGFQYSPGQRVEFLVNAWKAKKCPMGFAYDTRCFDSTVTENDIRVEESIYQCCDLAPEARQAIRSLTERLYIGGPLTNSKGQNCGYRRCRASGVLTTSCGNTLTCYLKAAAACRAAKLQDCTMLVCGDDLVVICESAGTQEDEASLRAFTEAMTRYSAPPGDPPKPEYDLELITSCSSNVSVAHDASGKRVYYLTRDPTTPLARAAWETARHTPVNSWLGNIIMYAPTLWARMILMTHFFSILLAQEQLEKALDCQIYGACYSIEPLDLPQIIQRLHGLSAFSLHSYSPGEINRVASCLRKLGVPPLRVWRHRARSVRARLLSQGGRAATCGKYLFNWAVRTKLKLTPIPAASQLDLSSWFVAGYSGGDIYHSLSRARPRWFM
How it was run: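 SPA detection of 3H-UTP (0.29 μM) incorporation by C-terminally truncated (18 aa) genotype 1b NS5B from E. coli, on polyA/biotin-oligo-dT12 at 30° C, pH 7.5 Hepes, 2% DMSO. Modified format: 14 nM enzyme, 0.2 nM template, 20 nM primer prebound to beads, 4 h; standard: 28 nM, 6 nM, 180 nM free primer, 60 min. Seven-point IC50 fit.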

[1] = HCV replicon cells, FRET or luciferase readout, read-out: EC50
[2] = HCV RdRp genotype 1b enzyme, read-out: IC50

SMILES	pEC50 (HCV replicon cells; [1])	pIC50 (HCV NS5B; [2])	pEC50 (HCV replicon cells)	pIC50 (HCV NS5B)
COc1ccc2c(c1)C=C(c1c(C(=O)N3C[C@@H](C)O[C@@H](C)C3)ccn1C(C)C)Cn1c-2c(C2CCCCC2)c2ccc(C(=O)NS(=O)(=O)C(C)C)cc21	6.30 to 9.00	6.30 to 9.00	–	–
COc1ccc2c(c1)C=C(c1c(C(=O)N3CCCN(C)CC3)cnn1C)Cn1c-2c(C2CCCCC2)c2ccc(C(=O)NS(=O)(=O)N3CCOCC3)cc21	6.30 to 9.00	> 7.70	–	–
COc1ccc2c(c1)C=C(c1c(C(=O)N3CCOCC3)cnn1C(C)C)Cn1c-2c(C2CCCCC2)c2ccc(C(=O)NS(=O)(=O)C(C)C)cc21	6.30 to 9.00	6.30 to 9.00	–	–
COc1ccc2c(c1)C=C(c1c(C(=O)N3C[C@@H](C)O[C@@H](C)C3)cnn1C)Cn1c-2c(C2CCCCC2)c2ccc(C(=O)NS(=O)(=O)CC(C)C)cc21	6.30 to 9.00	6.30 to 9.00	–	–
CCn1nc(C)c(C(=O)N2CC3CCC(C2)N3C)c1C1=Cc2cc(OC)ccc2-c2c(C3CCCCC3)c3ccc(C(=O)NS(=O)(=O)C(C)C)cc3n2C1	–	–	6.30 to 9.00	6.30 to 9.00
COc1ccc2c(c1)C=C(c1c(C(=O)N3C4CCC3CN(C)C4)cnn1C)Cn1c-2c(C2CCCCC2)c2ccc(C(=O)NS(=O)(=O)C3CC3)cc21	–	–	6.30 to 9.00	6.30 to 9.00
COc1ccc2c(c1)C=C(c1c(C(=O)N3CC4CCC(C3)N4C)c(C(F)(F)F)nn1C)Cn1c-2c(C2CCCCC2)c2ccc(C(=O)NS(=O)(=O)C(C)C)cc21	–	–	6.30 to 9.00	6.30 to 9.00
COc1ccc2c(c1)C=C(c1occc1C(=O)N1C3CCC1CN(C)C3)Cn1c-2c(C2CCCCC2)c2ccc(C(=O)NS(=O)(=O)C(C)C)cc21	–	–	6.30 to 9.00	6.30 to 9.00
COc1ccc2c(c1)C=C(c1c(C(=O)N3[C@@H]4CC[C@H]3C[C@@](C)(O)C4)cnn1C(C)C)Cn1c-2c(C2CCCCC2)c2ccc(C(=O)NS(=O)(=O)CC(C)C)cc21	–	–	6.30 to 9.00	6.30 to 9.00
COc1ccc2c(c1)C=C(c1c(C(=O)N3CCOCC3)cnn1C)Cn1c-2c(C2CCCCC2)c2ccc(C(=O)NS(=O)(=O)C3CCCC3)cc21	6.30 to 9.00	6.30 to 9.00	–	–
CCOC(=O)c1cc[nH]c1C1=Cc2cc(OC)ccc2-c2c(C3CCCCC3)c3ccc(C(=O)NS(=O)(=O)C(C)C)cc3n2C1	6.30 to 9.00	6.30 to 9.00	–	–
COc1ccc2c(c1)C=C(c1c(C(=O)N(C)CCN(C)C)cnn1C)Cn1c-2c(C2CCCCC2)c2ccc(C(=O)NS(=O)(=O)N3CCOCC3)cc21	6.30 to 9.00	6.30 to 9.00	–	–
CCC(C)S(=O)(=O)NC(=O)c1ccc2c(C3CCCCC3)c3n(c2c1)CC(c1c(C(=O)N2CCCC(N(C)C)C2)cnn1C)=Cc1cc(OC)ccc1-3 (stereo not drawn)	6.30 to 9.00	6.30 to 9.00	–	–
COC(=O)c1ncoc1C1=Cc2cc(OC)ccc2-c2c(C3CCCCC3)c3ccc(C(=O)OC(C)(C)C)cc3n2C1	< 7.40	< 7.40	–	–
COc1ccc2c(c1)C=C(c1c(C(=O)N3C4CCC3CN(C)C4)c(C)nn1C)Cn1c-2c(C2CCCCC2)c2ccc(C(=O)NS(=O)(=O)C(C)C)cc21	–	–	6.30 to 9.00	6.30 to 9.00
CCn1nc(C)c(C(=O)N2C[C@@H]3C[C@H]2CO3)c1C1=Cc2cc(OC)ccc2-c2c(C3CCCCC3)c3ccc(C(=O)NS(=O)(=O)C(C)C)cc3n2C1	6.30 to 9.00	6.30 to 9.00	–	–
CCN1C[C@@H]2C[C@H]1CN2C(=O)c1cnn(C)c1C1=Cc2cc(OC)ccc2-c2c(C3CCCCC3)c3ccc(C(=O)NS(=O)(=O)N4CCOCC4)cc3n2C1	6.30 to 9.00	6.30 to 9.00	–	–
CCC(C)S(=O)(=O)NC(=O)c1ccc2c(C3CCCCC3)c3n(c2c1)CC(c1c(C(=O)N2C4COCC2COC4)cnn1C)=Cc1cc(OC)ccc1-3 (stereo not drawn)	–	–	6.30 to 9.00	6.30 to 9.00
COc1ccc2c(c1)C=C(c1c(C(=O)N3C4CCC3CC4)cnn1C)Cn1c-2c(C2CCCCC2)c2ccc(C(=O)NS(=O)(=O)N3CCOCC3)cc21	–	–	6.30 to 9.00	6.30 to 9.00
CCN1C[C@@H]2C[C@H]1CN2C(=O)c1cnn(CC)c1C1=Cc2cc(OC)ccc2-c2c(C3CCCCC3)c3ccc(C(=O)NS(=O)(=O)C(C)C)cc3n2C1	6.30 to 9.00	6.30 to 9.00	–	–
COc1ccc2c(c1)C=C(c1c(C(=O)N3CCC(N4CCCC4)CC3)cnn1C)Cn1c-2c(C2CCCCC2)c2ccc(C(=O)NS(=O)(=O)C(C)C)cc21	6.30 to 9.00	6.30 to 9.00	–	–
COc1ccc2c(c1)C=C(c1c(C(=O)N3C4CCC3CN(C)C4)cnn1C)Cn1c-2c(C2CCCCC2)c2ccc(C(=O)NS(=O)(=O)N3CCCC3)cc21	–	–	6.30 to 9.00	6.30 to 9.00
COc1ccc2c(c1)C=C(c1c(C(=O)N3[C@@H]4CC[C@H]3CN(C)C4)cnn1C)Cn1c-2c(C2CCCCC2)c2ccc(C(=O)NS(=O)(=O)N3CCOCC3)cc21	–	–	6.30 to 9.00	6.30 to 9.00
COc1ccc2c(c1)C=C(c1c(C(=O)N3C[C@@H](C)N(C)[C@@H](C)C3)cnn1C(C)(C)C)Cn1c-2c(C2CCCCC2)c2ccc(C(=O)NS(=O)(=O)C(C)C)cc21	6.30 to 9.00	6.30 to 9.00	–	–
